The source of these data is paper PMC6523382 (Pharmaceutics, 2019).

The nature of this data set: Ginsenoside concentrations in rat plasma after oral RGE. It counts as in vivo. The method, then:
Ginsenoside concentrations in RGE and plasma samples were analyzed using an Agilent 6470 triple quadrupole liquid chromatography–tandem mass spectrometry (LC–MS/MS) system (Agilent, Wilmington, DE, USA) equipped with an Agilent 1260 high performance liquid chromatography (HPLC) system, according to a previously published method. […] Aliquots (20 μL) of the supernatant were injected into the LC–MS/MS system for the analysis of ginsenosides. […] The solvent gradient program was as follows: (1) 0–0.5 min, 72% B; (2) 0.5–8.5 min, 84% B; (3) 8.5–19.0 min, 72%.
Quantification of a separated ginsenoside peak was performed at m/z 1131.6 → 365.1 for Rb1 (TR (retention time) 5.0 min), m/z 1101.6 → 335.1 for Rb2 (TR 6.4 min) and Rc (TR 5.2 min), m/z 969.9 → 789.5 for Rd (TR 8.2 min) and Re (TR 1.6 min), m/z 824 → 643.6 for Rg1 (TR = 1.7 min), m/z 807.5 → 365.1 for Rg3 (TR 12.3 min), m/z 661.5 → 203.1 for Rh1 (TR 3.2 min) and F1 (TR 3.9 min), m/z 587.4 → 407.4 for Rh2 (TR 11.5 min), m/z 807.5 → 627.5 for F2 (TR 5.3 min), m/z 645.5 → 203.1 for compound K (TR 9.5 min), m/z 425.4 → 109.1 for protopanaxadiol (TR 18.8 min), m/z 441.3 → 109.1 for protopanaxatriol (TR 2.9 min), and m/z 336.1 → 320 for berberine (internal standard, IS) (TR 3.7 min) in the positive ionization mode with collision energy (CE) of 15–65 eV.

Take `CC(C)=CCC[C@](C)(O[C@@H]1O[C@H](CO[C@@H]2O[C@H](CO)[C@@H](O)[C@H](O)[C@H]2O)[C@@H](O)[C@H](O)[C@H]1O)[C@H]1CC[C@]2(C)[C@@H]1[C@H](O)C[C@@H]1[C@@]3(C)CC[C@H](O[C@@H]4O[C@H](CO)[C@@H](O)[C@H](O)[C@H]4O[C@@H]4O[C@H](CO)[C@@H](O)[C@H](O)[C@H]4O)C(C)(C)[C@@H]3CC[C@]12C` [Rb1]: the concentration at 2 h (rat, plasma, 2 h after single oral administration of RGE (1.5 g/kg), read-out: Concentration in rat plasma, SA) came out at 0.0143 ± 0.0027 µg/mL. In addition, the concentration at 24 h (rat, plasma, 24 h after last dose of 1-week repeated oral RGE (1.5 g/kg/day), read-out: Concentration in rat plasma, 1WRA) amounted to 0.0357 ± 0.0019 µg/mL.
As to `CC(C)=CCC[C@](C)(O[C@@H]1O[C@H](CO[C@@H]2OC[C@H](O)[C@H](O)[C@H]2O)[C@@H](O)[C@H](O)[C@H]1O)[C@H]1CC[C@]2(C)[C@@H]1[C@H](O)C[C@@H]1[C@@]3(C)CC[C@H](O[C@@H]4O[C@H](CO)[C@@H](O)[C@H](O)[C@H]4O[C@@H]4O[C@H](CO)[C@@H](O)[C@H](O)[C@H]4O)C(C)(C)[C@@H]3CC[C@]12C` [Rb2], the “Concentration in rat plasma, SA” value (2 h after single oral administration of RGE (1.5 g/kg)) worked out at 0.0063 ± 0.0021 µg/mL. In addition, the “Concentration in rat plasma, 1WRA” value (24 h after last dose of 1-week repeated oral RGE (1.5 g/kg/day)) was 0.0294 ± 0.0015 µg/mL.
